From patent publication US20230286928A1, “HETEROCYCLIC COMPOUNDS USEFUL IN THE TREATMENT OF DISEASE” (Epigen Biosciences, Inc., priority 2018, published 2023)

target: T1, LPA1R (Homo sapiens, UniProt Q92633); assay: Calcium flux assay: inhibition of LPA-stimulated Ca2+ flux (FLIPR, antagonist mode); assay type: cell-based; conditions: LPA1R Ca2+ flux functional assay, LPA1R expressing cells challenged with EC80 of LPA, read-out: LPA1 R Antagonist Activity
T1 construct: host or cells: LPA1R expressing cells (Millipore, GPCR Profiler)
T1 sequence (Q92633 whole entry): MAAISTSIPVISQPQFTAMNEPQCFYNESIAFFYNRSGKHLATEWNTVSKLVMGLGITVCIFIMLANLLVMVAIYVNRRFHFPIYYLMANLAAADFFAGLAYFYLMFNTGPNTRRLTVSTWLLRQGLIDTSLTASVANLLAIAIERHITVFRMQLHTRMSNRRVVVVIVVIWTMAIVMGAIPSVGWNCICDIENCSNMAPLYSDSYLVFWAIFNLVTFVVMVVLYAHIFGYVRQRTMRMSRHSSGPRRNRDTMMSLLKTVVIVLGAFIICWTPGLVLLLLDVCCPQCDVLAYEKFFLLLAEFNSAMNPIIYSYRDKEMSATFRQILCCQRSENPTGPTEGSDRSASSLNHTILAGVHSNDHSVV
Method: Inhibition of LPA-stimulated Ca^2+ flux was used to assess compound potency using FLIPR technology in a 96 well plate format. The assay buffer used was a modified Hanks Balanced Salt Solution (HBSS) where HBSS was supplemented to contain 20 mM HEPES and 2.5 mM Probenecid at pH7.4 (Millipore, GPCR Profiler®). LPA1R expressing cells (Millipore) were plated and prepared 24 hours prior to assay of test articles. Ca^2+ ion flux was assessed from fluorescence of a Fluo-based No Wash Ca^2+ dye. Antagonist data are generated from plates with LPA concentrations sufficient to generate 80% efficacy [EC80]. Percentage inhibition was calculated from a reduction of efficacy according to concentration of compounds of Formula I-VI. For dose responses the inhibition data was used to calculate compound IC50.
The agonist assay was conducted on a FLIPR^TETRA instrument where the test compound(s), vehicle controls, and reference agonist were added to the assay plate after a fluorescence baseline was established. The agonist assay was a total of 180 seconds and was used to assess each compound's ability to activate each GPCR assayed. Upon completion of the agonist assay, the assay plate was removed from the FLIPR^TETRA and incubated at 25° C. for seven (7) minutes. After the incubation period, the assay plate was placed back in the FLIPR^TETRA and the antagonist assay was initiated.
Antagonist Assay: Using EC80 potency values determined during the agonist assay, all pre-incubated sample compound wells were challenged with EC80 concentration of reference agonist after establishment of a fluorescence baseline. The antagonist assay was conducted using the same assay plate that was used for the agonist assay. The antagonist assay was conducted on a FLIPR^TETRA instrument where 9 vehicle controls and EC80 concentration of reference agonist were added to appropriate wells. The antagonist assay was a total of 180 seconds and was used to assess each compound's ability to inhibit each GPCR assayed.
Data Processing: All assay plate data were subjected to appropriate baseline corrections. After baseline corrections were applied, maximum fluorescence values were exported and data processed to calculate percentage activation (relative to Emax reference agonist and vehicle control values), percentage inhibition (relative to EC80 and vehicle control values), and additional statistical values (i.e. Z′, percentage variation between replicate data values) to assess the quality of each plate. Where assay plate data were rejected, additional experiments were conducted. All dose response curves were generated using GraphPad Prism. The curves were fit by utilizing “Sigmoidal Dose Response (Variable Slope)” equation where the bottom parameter was fixed to “0.” Where appropriate, the top parameter was fixed to “100” to better predict potency values when a full curve was not generated by the concentrations assayed.

| IC50 [µM] | SMILES |
| --- | --- |
| 1 to 50 | C[C@@H](OC(=O)Nc1c(F)cnn1-c1ccc(-c2ccc(C3(c4nnn[nH]4)CC3)cc2)cc1)c1ccccc1Cl [Compound 21, (R)-1-(2-chlorophenyl)ethyl (1-(4′-(1-(1H-tetrazol-5-yl)cyclopropyl)-[1,1′-biphenyl]-4-yl)-4-fluoro-1H-pyrazol-5-yl)carbamate] |
| 1 to 50 | C[C@@H](OC(=O)Nc1c(Cl)cnn1-c1ccc(-c2ccc(C3(C(=O)NC#N)CC3)cc2)cc1)c1ccccc1 [Compound 24, (R)-1-phenylethyl (4-chloro-1-(4′-(1-(cyanocarbamoyl)cyclopropyl)-[1,1′-biphenyl]-4-yl)-1H-pyrazol-5-yl)carbamate] |
| 1 to 50 | C[C@@H](OC(=O)Nc1c(Cl)cnn1-c1ccc(-c2ccc(C3(C(=O)NC#N)CC3)cc2)cc1)c1ccccc1Cl [Compound 25, (R)-1-(2-chlorophenyl)ethyl (4-chloro-1-(4′-(1-(cyanocarbamoyl)cyclopropyl)-[1,1′-biphenyl]-4-yl)-1H-pyrazol-5-yl)carbamate] |
| < 0.3 | C[C@@H](OC(=O)Nc1c(C#N)cnn1-c1ccc(-c2ccc(C(C)(C)C(=O)O)cc2)cc1)c1ccccc1 [Compound 28, (R)-2-(4′-(4-cyano-5-(((1-phenylethoxy)carbonyl)amino)-1H-pyrazol-1-yl)-[1,1′-biphenyl]-4-yl)-2-methylpropanoic acid] |

Second part, the compound before the results:

| SMILES | IC50 [µM] |
| --- | --- |
| C[C@@H](OC(=O)Nc1c(Cl)cnn1-c1ccc(-c2ccc(C3(c4nnn[nH]4)CC3)cc2)cc1)c1ccccc1 [Compound 22, (R)-1-phenylethyl (1-(4′-(1-(1H-tetrazol-5-yl)cyclopropyl)-[1,1′-biphenyl]-4-yl)-4-chloro-1H-pyrazol-5-yl)carbamate] | < 0.3 |
| C[C@@H](OC(=O)Nc1c(Cl)cnn1-c1ccc(-c2ccc(C3(c4nnn[nH]4)CC3)cc2)cc1)c1ccccc1Cl [Compound 23, (R)-1-(2-chlorophenyl)ethyl (1-(4′-(1-(1H-tetrazol-5-yl)cyclopropyl)-[1,1′-biphenyl]-4-yl)-4-chloro-1H-pyrazol-5-yl)carbamate] | 1 to 50 |
| C[C@@H](OC(=O)Nc1c(F)cnn1-c1ccc(-c2ccc(C3(C(=O)NC#N)CC3)cc2F)cc1)c1ccccc1Cl [Compound 26, (R)-1-(2-chlorophenyl)ethyl (1-(4′-(1-(cyanocarbamoyl)cyclopropyl)-2′-fluoro-[1,1′-biphenyl]-4-yl)-4-fluoro-1H-pyrazol-5-yl)carbamate] | < 0.3 |
| C[C@@H](OC(=O)Nc1c(C#N)cnn1-c1ccc(-c2ccc(C(C)(C)C(=O)O)cc2)cc1)c1ccccc1Cl [Compound 27, (R)-2-(4′-(5-(((1-(2-chlorophenyl)ethoxy)carbonyl)amino)-4-cyano-1H-pyrazol-1-yl)-[1,1′-biphenyl]-4-yl)-2-methylpropanoic acid] | < 0.3 |
